In the assay the target is T1, SENP1(C603A) (Homo sapiens, UniProt Q9P0U3, C603A).
T1 construct: GST; made in house
T1 sequence (Q9P0U3 1-644 C603A): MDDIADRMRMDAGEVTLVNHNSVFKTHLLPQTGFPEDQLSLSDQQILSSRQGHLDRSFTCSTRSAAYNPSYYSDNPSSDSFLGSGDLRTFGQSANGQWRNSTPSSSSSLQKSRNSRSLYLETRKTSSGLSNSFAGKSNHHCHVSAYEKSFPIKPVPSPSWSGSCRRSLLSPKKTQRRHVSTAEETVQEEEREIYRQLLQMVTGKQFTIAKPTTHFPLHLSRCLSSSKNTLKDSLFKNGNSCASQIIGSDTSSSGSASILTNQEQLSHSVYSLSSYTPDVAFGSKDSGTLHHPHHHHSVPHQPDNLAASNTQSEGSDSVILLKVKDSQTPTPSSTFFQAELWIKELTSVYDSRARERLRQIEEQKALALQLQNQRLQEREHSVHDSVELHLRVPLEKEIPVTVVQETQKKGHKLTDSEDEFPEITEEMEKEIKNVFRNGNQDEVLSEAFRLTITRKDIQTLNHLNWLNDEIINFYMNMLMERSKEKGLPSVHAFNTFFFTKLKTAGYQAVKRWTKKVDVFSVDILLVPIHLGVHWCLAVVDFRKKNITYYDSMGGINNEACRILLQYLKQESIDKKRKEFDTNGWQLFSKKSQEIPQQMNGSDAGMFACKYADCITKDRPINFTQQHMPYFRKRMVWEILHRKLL
As to the kind of experiment: UPLC-MS/MS of UA associated with IPs of SENP1 proteins. Type of assay: binding. To be noted: mass-spec and surface plasmon resonance analyses. The procedure:
FIGURE 2 UA directly interacts with Sentrin‐specific protease 1 (SENP1). (A) Cellular thermal shift assay to examine the interaction of UA with SENP1. IGROV1 CR cells pretreated with MG132 (10 μM, 1 h) were incubated with DMSO or UA for 4 h before being shifted to indicated temperatures. SENP1 stability was analyzed by using Western blot against SENP1 antibody. Right panel, quantification of non‐denatured SENP1 fraction shown in the left panel. (B) Cell‐free thermal shift assay to examine interactions of UA with SENP1. Purified SENP1 proteins were incubated with DMSO or UA for 4 h before being shifted to the indicated temperatures. SENP1 stability was analyzed by using Western blot against SENP1 antibody. Right panel, quantification of non‐denatured SENP1 fraction shown in the left panel. […] Stability of SENP1(C603A) was analyzed by using Western blot against SENP1 antibody. […] Left; Ultra‐high performance liquid‐chromatography‐MS/MS analyses of associated UA in indicated samples, right; quantification of data shown in left (the binding affinity of UA with SENP1‐C603A was normalized as 1). […]
Cell viability was detected using Sulforhodamine B (SRB) assay as described previously (3).
Absorbance at 51 0 nm was detected using a SpectraMax Re a d e r (Molecular Devices) and […]
On the technique in general: SPR reads the build-up and loss of mass on a sensor chip optically.

`C[C@H]1[C@H](C)CC[C@]2(C(=O)O)CC[C@]3(C)C(=CC[C@@H]4[C@@]5(C)CC[C@H](O)C(C)(C)[C@@H]5CC[C@]43C)[C@H]12` [UA, ursolic acid, reference compound]: the “binding of UA to SENP1(C603A) compared to SENP1” value was “decreased binding affinities”.

For the origin of these results see article PMC8710297, “Identification of potent SENP1 inhibitors that inactivate SENP1/JAK2/STAT signaling pathway and overcome platinum drug resistance in ovarian cancer” (Clinical and Translational Medicine, 2021).
